Reference: US20250002435A1, “ARYLATED FENCHONE DERIVATIVES, COMPOSITIONS COMPRISING THEM, PROCESSES FOR THEIR PREPARATION AND USES THEREOF” (priority 2021, published 2025)
Values joined by “and” are separate entries in the source; they are usually repeats but may differ in a detail not shown here. Identical values can stand only once. “Also recorded” adds a separate entry of the source.

Columns and labels:
hCB2R = hCB2R (Homo sapiens (Human), UniProt P34972); test: [35S]GTPγS binding assay, hCB2R CHO cell membranes; type: biochemical; details: for functional activity at hCB2R (agonist / inverse agonist): [35S]GTPγS binding; for EC50: [35S]GTPγS binding to hCB2R, two independent experiments in triplicate; for E(max) %: percentage of HU-308 response at 1 μM
Chain of hCB2R (P34972 whole entry): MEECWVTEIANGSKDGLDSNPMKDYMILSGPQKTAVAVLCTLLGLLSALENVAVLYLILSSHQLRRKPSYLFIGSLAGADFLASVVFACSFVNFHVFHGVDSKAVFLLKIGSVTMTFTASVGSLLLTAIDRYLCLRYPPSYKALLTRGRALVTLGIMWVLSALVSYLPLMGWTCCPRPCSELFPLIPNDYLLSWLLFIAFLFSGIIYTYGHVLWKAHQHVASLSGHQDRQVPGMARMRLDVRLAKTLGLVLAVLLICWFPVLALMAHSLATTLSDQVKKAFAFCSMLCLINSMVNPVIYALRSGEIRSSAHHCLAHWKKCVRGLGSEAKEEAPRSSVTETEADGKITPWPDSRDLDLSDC
Description: Functional Characterization.
The method used for measuring agonist-stimulated binding of [^35S]GTPγS was based on a described protocol. The assays were carried out with GTPγS assay buffer (50 mM Tris HCl (pH 7.4), 0.2 mM EGTA, 9 mM MgCl2, 150 mM NaCl, 1 mg/ml BSA). Briefly, membranes (5 μg protein) were incubated in assay buffer containing 100 μM GDP, 0.05 nM [^35S]GTPγS, test compounds at various concentrations in siliconized glass tubes. Bound ligand was separated from free ligand by vacuum filtration. Nonspecific binding was determined using 10 μM GTPS. Basal binding was assayed in the absence of the ligand and in the presence of GDP.

[1] = tested on: Human OA derived articular chondrocytes; test: cAMP-Glo EC50 in chondrocyte cell cultures; type: cell-based; details: 45 min treatment
Source text: All human cell cultures were obtained from total knee replacement surgery (TKA) in accordance with Hadassah Medical Center Institutional Review Board approval and in accordance with the Helsinki Declaration ethical principles for medical research involving human subjects (Study #0488-09). Following written informed consent, articular cartilage was obtained from the knee joints of OA patients undergoing total knee arthroplasty (n=51, mean age 71 years, mean body mass index 31 kg/m2, Kellgren and Lawrence score ranging 3-4). Articular cartilage tissue was dissected, chondrocytes isolated and plated as described by Bar Oz et al., (10). Isolated chondrocytes were passaged to passage 3, and plated in 96 well plates with DMEM media containing 10% FCS, 1% Penicillin-streptomycin, 1% Amphotericin B. Cultures were maintained in standard incubation conditions (37° C., 5% CO2) until confluence. All reagents for cell culture were purchased for Biological Industries (Israel, Beit-Haemek Kibutz), unless otherwise indicated. […] Luminescence was measured and a standard curve was simultaneously run per plate. […] Using this ΔRLU value and the linear equation generated from the standard curve, the cAMP concentration was calculated. […]

mCB1R = mCB1R (Mus musculus (Mouse), UniProt P47746); test: [3H]CP-55,940 competition displacement binding, crude membranes from mouse brain; details: for Ki: displacement of [3H]CP-55,940, NB = No binding detected at concentrations up to 10 μM, read-out: Ki (nM) mCB1R
Chain of mCB1R (P47746 whole entry): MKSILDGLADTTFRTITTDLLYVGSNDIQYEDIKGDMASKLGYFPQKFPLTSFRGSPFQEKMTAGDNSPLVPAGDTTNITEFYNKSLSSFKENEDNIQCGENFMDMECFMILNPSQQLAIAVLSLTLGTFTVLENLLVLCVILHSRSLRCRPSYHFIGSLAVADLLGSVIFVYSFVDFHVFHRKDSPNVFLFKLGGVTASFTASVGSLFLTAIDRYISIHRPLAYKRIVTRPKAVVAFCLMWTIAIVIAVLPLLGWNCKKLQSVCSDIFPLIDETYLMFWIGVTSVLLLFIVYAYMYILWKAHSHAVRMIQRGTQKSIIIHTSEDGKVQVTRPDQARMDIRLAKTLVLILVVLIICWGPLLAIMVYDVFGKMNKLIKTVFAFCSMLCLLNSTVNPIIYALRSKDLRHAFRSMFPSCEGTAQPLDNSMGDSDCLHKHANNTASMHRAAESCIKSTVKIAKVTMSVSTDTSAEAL
Description: Affinity for Cannabinoid Receptors. The compounds were further characterized using a radioligand binding assay to determine their affinities for CB1R and CB2R based on each test compound's ability to displace the radiolabeled CB1R/CB2R agonist CP-55,940 from membranes prepared from a mouse brain (a source of CB1R) and membranes of cells expressing the human CB2R. […] Therefore, the compounds were assayed using membranes from CHO-K1 cells expressing the human CB2R (hCB2R).
Membranes from cells expressing human CB2R were purchased from Charles River, (Cat #A308; Ohio, US). Solutions of test compounds ranging from 0.1 nM to 10 mM were prepared in DMSO. The desired amount of membrane preparation was diluted with ice-cold assay buffer (50 mM Tris-HCl, 2.5 mM EDTA, 5 mM MgCl2, 0.1% BSA, pH 7.4) and was vortexed. […] The assays were incubated for 90 minutes at 30° C. and then immediately filtered on WHATMAN GF/B FilterPaper (Fired) using a Brandel M-24R Harvester followed by six washes with ice cold wash buffer (50 mM Tris-HCl, 2.5 mM EDTA, 5 mM MgCl2, 0.1% BSA, pH 7.4). Radioactivity was detected by adding the FilterPaper directly to the ULTIMA GOLD scintillation cocktail (PerkinElmer), incubation at 20° C. for 60 min and then counted using a Tri-Carb 4910TR liquid scintillation counter.

CNR1 = CNR1 (Homo sapiens (Human), UniProt P21554); test: cAMP Hunter antagonist assay, CB1; type: cell-based; details: cAMP antagonist mode
Description: Cannabinoid receptors belong to G-protein-coupled receptors which may transduce intracellular agonist-antagonist responses regulating in part levels of cAMP within the cells. Fenchone derivates were assayed using Eurofins proprietary assays (i.e. CB1-Antagonist Catalog #86-0007P-2277AN; CB2-Antagonist Catalog ref. 86-0007P-2818AN; CB1-Agonist; Catalog #86-0007P-2277AG; CB2-Agonist-Catalog #86-0007P-2818AG).
(§1) Briefly, for antagonist activity, cAMP Hunter™ Gi cell lines overexpress naturally Gi coupled, wild type GPCRs and are designed to detect inhibition of intracellular cAMP production in response to agonist stimulation of the receptor. These cell lines are designed to be used in conjunction with the HitHunter® cAMP Assay Detection Kit.
as §1, with “Similarly,” for “Briefly,”, “agonist” for “antagonist”, “Gs” for “Gi”, “increases in” for “inhibition of”, “levels” for “production”, “Kit. […]” for “Kit.”

Row | Structure (SMILES) | functional activity at hCB2R (agonist / inverse agonist) (hCB2R) | EC50 (hCB2R) | E(max) % (hCB2R) [%] | EC50 in chondrocytes compared with HU308 [1] | Ki (mCB1R) [nM] | inhibition of [3H]CP-55,940 binding to mCB1R (mCB1R; in words) | antagonistic effect CNR1 (CNR1)
1 | CCCCCc1cc(OC)c(C2(O)C3(C)CCC(C3)C2(C)C)c(OC)c1 (single isomer, unassigned) [Compound 1b, 2-(2,6′-dimethoxy-4′-pentylphenyl)-1,3,3-trimethylbicyclo[2.2.1]heptan-2-ol] | agonist | 11.6 nM | 65.1 | low EC50; also recorded: superior EC50 over HU308 | 2290 | no detectable inhibition | no detectable antagonistic effect
2 | CCCCCCC(C)(C)c1cc(OC)c([C@]2(O)C3(C)CCC(C3)C2(C)C)c(OC)c1 (stereo partly shown) [Compound 1d, 2-(2,6′-dimethoxy-4′-(2″-methyloctan-2″-yl)phenyl)-1,3,3-trimethyl-bicyclo[2.2.1]heptan-2-ol] | agonist | 2.6 nM and 2.59 nM | 89.63 | low EC50; also recorded: superior EC50 over HU308 | 427 | – | no detectable antagonistic effect
